# Results as given in PMC10388202, “Single amino acid–based PROTACs trigger degradation of the oncogenic kinase BCR–ABL in chronic myeloid leukemia (CML)” (The Journal of Biological Chemistry, 2023).
# Where “and” joins values, the source holds several entries; their conditions need not be identical. Equal entries are not always repeated. Entries after “also recorded” stand apart in the source; their conditions may differ. Where two headings read alike, the source gives them in different places. Peptide text beside a SMILES is read from it. * marks the point of attachment. Cbz = O=C(OCc1ccccc1)*
# Tests used:
# K562 cells [1] = experiment: K562 cell viability, CCK-8 assay; type: cell-based; settings: Homo sapiens, 48 h, read-out: IC50 (half maximal inhibitory concentration), K562 proliferation
# Experimental: K562 cells (5 × 10^3 cells per well) were grown in 96-well plates with 100 μl medium. After the treatment with the PROTACs at various concentrations (0, 0.01, 0.1, 0.25, 0.5, 0.75, 1, and 2.5 nM) for 48 h, CCK-8 solution was added to each well and incubated for 2 h at 37 °C, and the number of viable cells was determined by measuring the absorbance of the converted dye at a 450 nm wavelength, according to the manufacturer’s instructions (Yeasen). Each experiment was performed at least three times independently.
# BCR–ABL [2] = target: T1, BCR–ABL (Homo sapiens, UniProt P00519); experiment: BCR–ABL degradation in K562 cells (immunoblot); type: cell-based; settings: 5 nM, 48 h, read-out: DMax (maximum degradation percentage in comparison with control) at 5 nM
# T1 construct: assessed in human CML K562 cells bearing BCR–ABL; host or cells: K562
# T1 sequence (P00519 whole entry, looked up): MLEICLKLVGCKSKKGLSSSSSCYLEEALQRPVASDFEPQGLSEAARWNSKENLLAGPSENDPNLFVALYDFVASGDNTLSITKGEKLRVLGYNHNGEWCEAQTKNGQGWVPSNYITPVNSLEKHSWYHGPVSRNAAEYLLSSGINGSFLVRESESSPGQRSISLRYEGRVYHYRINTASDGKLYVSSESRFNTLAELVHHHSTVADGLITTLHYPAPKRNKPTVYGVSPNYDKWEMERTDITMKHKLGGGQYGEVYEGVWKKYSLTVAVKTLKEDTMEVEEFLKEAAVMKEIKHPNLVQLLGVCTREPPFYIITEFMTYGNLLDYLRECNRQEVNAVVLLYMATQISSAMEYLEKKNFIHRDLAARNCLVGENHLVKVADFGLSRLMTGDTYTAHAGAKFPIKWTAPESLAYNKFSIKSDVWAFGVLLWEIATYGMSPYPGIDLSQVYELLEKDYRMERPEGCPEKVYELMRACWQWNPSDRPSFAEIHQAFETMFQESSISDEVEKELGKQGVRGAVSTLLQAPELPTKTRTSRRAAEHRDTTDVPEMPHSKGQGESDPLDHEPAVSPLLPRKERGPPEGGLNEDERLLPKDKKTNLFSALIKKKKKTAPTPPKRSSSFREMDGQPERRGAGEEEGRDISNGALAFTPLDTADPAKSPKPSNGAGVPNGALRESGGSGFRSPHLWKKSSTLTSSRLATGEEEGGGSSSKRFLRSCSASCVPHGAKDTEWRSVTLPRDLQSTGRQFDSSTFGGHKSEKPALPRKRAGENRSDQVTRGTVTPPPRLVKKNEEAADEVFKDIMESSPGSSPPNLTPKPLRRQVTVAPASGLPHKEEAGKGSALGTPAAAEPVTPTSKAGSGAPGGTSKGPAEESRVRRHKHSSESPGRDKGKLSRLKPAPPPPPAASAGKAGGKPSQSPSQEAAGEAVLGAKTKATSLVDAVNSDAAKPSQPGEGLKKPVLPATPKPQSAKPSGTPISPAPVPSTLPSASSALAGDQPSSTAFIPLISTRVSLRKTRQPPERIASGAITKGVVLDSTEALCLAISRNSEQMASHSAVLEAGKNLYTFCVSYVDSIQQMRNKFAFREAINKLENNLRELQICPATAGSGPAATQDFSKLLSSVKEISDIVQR
# Experimental: (§1) The ability of Arg-PEGn-Dasa PROTACs to induce BCR–ABL degradation was assessed in human CML K562 cells bearing BCR–ABL. […] We next evaluated the impact of Arg-PEGn-Dasa on cell proliferation in K562 cells using Cell Counting Kit-8 (CCK-8) assay.
# (§2) Cells were collected and lysed in radioimmunoprecipitation assay buffer (50 mM Tris–HCl [pH 8.0], 1% NP-40, 150 mM NaCl, 0.1% SDS, 0.5% sodium deoxycholate, and 1× complete protease inhibitor cocktail) on ice for 20 min and centrifuged at 15,000 rpm for 10 min at 4 °C to collect the supernatant. After protein concentrations were measured by the bicinchoninic acid protein assay kit (Thermo Scientific), samples with equal amounts of proteins were mixed with loading buffer and denatured by boiling. Protein lysates were resolved by SDS-PAGE and transferred to polyvinylidene fluoride membranes. Then, the membranes were blocked in 5% nonfat milk for 1 h at room temperature, incubated with a primary antibody overnight at 4 °C, and then incubated with horseradish peroxidase–conjugated secondary antibodies for 1 h at room temperature. Subsequently, the membranes were probed with ECL reagent (Millipore), and proteins were visualized by a Tanon-5200 Automatic Chemiluminescence Imaging Analysis System (Tanon).
# BCR–ABL [3] = target: T2, BCR–ABL (Homo sapiens, UniProt P00519+P11274); experiment: BCR–ABL degradation in K562 cells (immunoblot); type: cell-based; design: assessed in human CML K562 cells bearing BCR–ABL; host or cells: K562; settings: for time at which BCR–ABL reduction appears: 1 nM; for DC50: immunoblot, read-out: DC50 (drug concentration that degrades 50% protein)
# T2 sequence (P11274+P00519 fused): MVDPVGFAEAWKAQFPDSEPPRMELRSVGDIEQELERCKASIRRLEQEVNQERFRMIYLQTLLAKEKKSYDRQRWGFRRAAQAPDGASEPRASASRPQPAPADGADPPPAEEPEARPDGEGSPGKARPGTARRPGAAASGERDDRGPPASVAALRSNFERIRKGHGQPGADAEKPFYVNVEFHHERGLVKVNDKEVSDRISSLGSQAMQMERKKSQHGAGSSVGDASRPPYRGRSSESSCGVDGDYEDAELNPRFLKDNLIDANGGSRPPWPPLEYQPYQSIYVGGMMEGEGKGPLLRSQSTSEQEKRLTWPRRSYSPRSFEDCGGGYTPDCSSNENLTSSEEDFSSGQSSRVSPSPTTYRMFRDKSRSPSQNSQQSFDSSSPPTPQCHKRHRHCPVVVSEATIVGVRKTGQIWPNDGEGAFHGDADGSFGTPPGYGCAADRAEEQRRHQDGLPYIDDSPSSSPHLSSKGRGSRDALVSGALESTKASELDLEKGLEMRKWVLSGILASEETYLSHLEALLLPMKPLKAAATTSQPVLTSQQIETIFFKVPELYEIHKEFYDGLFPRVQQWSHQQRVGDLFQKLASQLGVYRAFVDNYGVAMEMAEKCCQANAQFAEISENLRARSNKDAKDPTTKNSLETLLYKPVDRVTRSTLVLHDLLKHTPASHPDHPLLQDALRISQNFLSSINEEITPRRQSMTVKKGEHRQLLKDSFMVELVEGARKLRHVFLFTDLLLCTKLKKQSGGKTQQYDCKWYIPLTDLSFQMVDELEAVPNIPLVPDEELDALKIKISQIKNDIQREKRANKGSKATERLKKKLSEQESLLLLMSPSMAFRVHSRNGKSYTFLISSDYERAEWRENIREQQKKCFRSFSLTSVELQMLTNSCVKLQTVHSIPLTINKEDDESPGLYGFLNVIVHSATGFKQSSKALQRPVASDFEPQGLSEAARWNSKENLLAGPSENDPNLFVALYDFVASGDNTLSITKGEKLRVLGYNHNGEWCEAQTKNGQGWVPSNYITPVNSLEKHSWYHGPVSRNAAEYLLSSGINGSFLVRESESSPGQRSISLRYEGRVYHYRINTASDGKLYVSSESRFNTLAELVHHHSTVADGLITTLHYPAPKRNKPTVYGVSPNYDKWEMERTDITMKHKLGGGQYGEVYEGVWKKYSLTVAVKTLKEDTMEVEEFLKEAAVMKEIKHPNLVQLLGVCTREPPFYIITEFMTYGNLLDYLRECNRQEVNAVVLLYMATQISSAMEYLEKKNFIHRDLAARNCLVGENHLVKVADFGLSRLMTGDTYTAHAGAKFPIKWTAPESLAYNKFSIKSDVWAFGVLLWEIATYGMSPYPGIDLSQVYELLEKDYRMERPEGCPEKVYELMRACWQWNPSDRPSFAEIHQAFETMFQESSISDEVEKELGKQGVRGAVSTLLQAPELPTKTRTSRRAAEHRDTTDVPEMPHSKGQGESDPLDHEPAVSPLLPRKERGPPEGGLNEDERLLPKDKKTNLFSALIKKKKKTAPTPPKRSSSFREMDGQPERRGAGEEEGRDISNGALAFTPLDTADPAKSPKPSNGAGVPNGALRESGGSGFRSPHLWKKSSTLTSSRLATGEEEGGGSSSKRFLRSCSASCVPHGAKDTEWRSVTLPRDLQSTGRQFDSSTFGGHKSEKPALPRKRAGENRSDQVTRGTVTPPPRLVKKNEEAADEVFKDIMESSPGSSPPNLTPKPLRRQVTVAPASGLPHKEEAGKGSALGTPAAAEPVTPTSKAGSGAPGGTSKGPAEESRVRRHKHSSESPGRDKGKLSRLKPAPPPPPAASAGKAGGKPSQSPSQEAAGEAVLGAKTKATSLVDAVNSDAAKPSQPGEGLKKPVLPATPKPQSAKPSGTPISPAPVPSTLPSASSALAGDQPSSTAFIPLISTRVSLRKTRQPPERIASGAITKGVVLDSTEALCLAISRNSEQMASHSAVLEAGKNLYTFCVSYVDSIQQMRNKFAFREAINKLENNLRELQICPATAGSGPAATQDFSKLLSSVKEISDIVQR
# Experimental: as §1, §2
# BCR–ABL [4] = target: T2, BCR–ABL; experiment: BCR–ABL protein in K562 xenograft tumors (immunohistochemistry, immunoblot); settings: nude mice, 10 mg/kg i.p. every other day, 10 doses, IHC and immunoblot
# Experimental: To evaluate the effects of the N-end rule–based PROTAC on tumor growth in vivo, we set up a K562 CML xenograft mouse model. K562 cells were subcutaneously implanted into the right flank of female nude mice. […] Tumor volumes were measured at indicated time with calipers. When sacrificed on day 27, the tumors were harvested and photographed (Fig. 6A).
# Cells were collected and lysed in radioimmunoprecipitation assay buffer (50 mM Tris–HCl [pH 8.0], 1% NP-40, 150 mM NaCl, 0.1% SDS, 0.5% sodium deoxycholate, and 1× complete protease inhibitor cocktail) on ice for 20 min and centrifuged at 15,000 rpm for 10 min at 4 °C to collect the supernatant. After protein concentrations were measured by the bicinchoninic acid protein assay kit (Thermo Scientific), samples with equal amounts of proteins were mixed with loading buffer and denatured by boiling. Protein lysates were resolved by SDS-PAGE and transferred to polyvinylidene fluoride membranes. Then, the membranes were blocked in 5% nonfat milk for 1 h at room temperature, incubated with a primary antibody overnight at 4 °C, and then incubated with horseradish peroxidase–conjugated secondary antibodies for 1 h at room temperature. Subsequently, the membranes were probed with ECL reagent (Millipore), and proteins were visualized by a Tanon-5200 Automatic Chemiluminescence Imaging Analysis System (Tanon). […]
# [5] = system: glutathione-S-transferase-BCR–ABL; experiment: Ubiquitination assay of GST-BCR–ABL in HEK293T cells (denaturing IP); type: cell-based, human; settings: HEK293T cells coexpressing GST-BCR–ABL and myc-Ub, 48 h
# Experimental: To determine the degradation pathway of BCR–ABL induced by PROTAC, we added lysosome acidification inhibitor chloroquine or proteasome inhibitor MG132 into Arg-PEG1-Dasa–treated K562 cells. […] To ascertain that Arg-PEG1-Dasa induced BCR–ABL turnover, we monitored the degradation kinetics of BCR–ABL with or without the PROTAC treatment. K562 cells were treated with cycloheximide to block protein synthesis and sampled at various time points for BCR–ABL levels. […] To further evaluate the involvement of the proteasome in PROTAC-induced degradation, we also added the proteasome inhibitor MG132 in the reaction. […] We next sought to investigate the Arg-PEG1-Dasa–induced ubiquitination of BCR–ABL.
# Ubiquitination of BCR–ABL was detected using denatured immunoprecipitation. Cells were lysed in SDS-denaturing buffer (50 mM Tris–HCl [pH 7.4], 150 mM NaCl, 1% NP-40, 1% SDS, and 0.5% sodium deoxycholate) and boiled for 10 min. Cell lysates were then diluted 10-fold in native lysis buffer (50 mM Tris–HCl [pH 7.4], 150 mM NaCl, 1% NP-40, and 0.5% sodium deoxycholate). After centrifugation at 15,000 rpm for 10 min, the supernatants were immunoprecipitated using glutathione-Sepharose 4B beads (GE Healthcare) and incubated for 2 h at 4 °C. Beads were then washed five times using the native lysis buffer. […]
# K562 cells [6] = experiment: K562 cell growth after drug washout (CCK-8); type: cell-based, human; settings: 1 nM 48 h, drug-free medium 1 to 4 days
# Experimental: Figure 2 Arg-PEG (1–4)-Dasa induced the degradation of BCR–ABL through the proteasome.A, K562 cells were incubated with Arg-PEG (1–4)-Dasa bearing different numbers of PEG linker at indicated concentration for 48 h. The expression of various proteins indicated was determined by immunoblotting. B, K562 cell viability was examined using CCK-8 assays after the treatment with Arg-PEG (1–4)-Dasa for 48 h at various concentrations (0, 0.01, 0.1, 0.25, 0.5, 0.75, 1, and 2.5 nM). C, immunoblot analysis of the indicated proteins in K562 cells treated with various compounds at 1 nM for 48 h. D, immunoblot analysis of the proteins indicated in K562 cells treated with gradually increasing doses of Arg-PEG1-Dasa for 48 h. E, immunoblot analysis of the indicated proteins in K562 cells treated with DMSO, Arg-PEG1-Dasa, Dasa, or NH2-PEG1-Dasa at 1 nM for 48 h. F, immunoblot analysis of the indicated proteins in K562 cells pretreated with Dasa or NH2-PEG1-Dasa (1 nM) for 2 h followed by Arg-PEG1-Dasa treatment at 1 nM for 48 h. G and H, K562 cells were treated with indicated compounds at 1 nM for 2 days, following washout and incubation compound-free medium. G, cell growth was detected using CCK-8 assays at the indicated times. H, the protein level indicated was tested with immunoblot. […]
# K562 xenograft = experiment: K562 CML xenograft mouse model, tumor growth; type: in vivo; settings: nude mice, 10 mg/kg i.p. every other day, 10 doses, day 27
# Experimental: (§3) To evaluate the effects of the N-end rule–based PROTAC on tumor growth in vivo, we set up a K562 CML xenograft mouse model. K562 cells were subcutaneously implanted into the right flank of female nude mice. When the tumors reached a palpable volume of about 50 to 80 mm^3 at day 7, the mice bearing K562 tumors were then divided into two groups randomly and administered every other day with either vehicle or Arg-PEG1-Dasa (10 mg/kg) for total 10 doses by intraperitoneal injection. Tumor volumes were measured at indicated time with calipers. When sacrificed on day 27, the tumors were harvested and photographed (Fig. 6A). The amount of BCR–ABL protein in vivo upon Arg-PEG1-Dasa treatment was examined in K562 xenograft mouse model using the immunohistochemistry (Fig. 6B) and immunoblot (Fig. 6C). […]. Further studies are needed to optimize PROTAC or administration strategy to achieve better therapeutic effects.
# (§4) K562 cells (1 × 10^7 cells/200 μl) were subcutaneously injected into the right flank of 4-week-old female nude mice. […]. The drugs were subsequently administered by i.p. injection every other day with either vehicle, Arg-PEG1-Dasa, or Dasa (10 mg/kg) for total 10 doses. The growth of tumors in mice was measured with a Vernier caliper. The tumor volume was determined using the formula volume = 0.5 × (length) × (width)^2. […]
# [7] = Body weight of mice in K562 xenograft model; type: in vivo
# Experimental: as §3, §4
# pSTAT5 = experiment: STAT5 phosphorylation after drug washout (immunoblot); type: cell-based, human; settings: K562 cells, 1 nM 2 days, compound-free medium
# Experimental: For controls, we also examined the activity of the PROTAC without the single amino acid (an intermediate product NH2-PEG1-Dasa, Fig. S1A) or Dasa alone on cell viability of K562 cells for 48 h. […] Moreover, the ability of Arg-PEG1-Dasa–mediated degradation of BCR–ABL was mitigated by cotreatment with excess Dasa or NH2-PEG1-Dasa in the competition assay (Fig. 2F). One advantage of PROTACs versus traditional inhibitors is that only the transient drug–target interaction is needed for its target suppression.
# as §2, with “Subsequently, the membranes were probed with ECL reagent (Millipore), and proteins were visualized by a Tanon-5200 Automatic Chemiluminescence Imaging Analysis System (Tanon).” left out
SMILES,IC50 (K562 cells [1]),Dmax at 0.005 µM (BCR–ABL [2]),time at which BCR–ABL reduction appears (BCR–ABL [3]),DC50 (BCR–ABL [3]; 48 h),also measured
Cc1nc(Nc2ncc(C(=O)Nc3c(C)cccc3Cl)s2)cc(N2CCN(CCOC(=O)CCOCCOCCOCCOCCNC(=O)C(N)CCCNC(=N)N)CC2)n1 (stereo not shown) [Arg-PEG4-Dasa],0.524 nM,,,,
Cc1nc(Nc2ncc(C(=O)Nc3c(C)cccc3Cl)s2)cc(N2CCN(CCOC(=O)CCOCCNC(=O)[C@@H](N)Cc3ccccc3)CC2)n1 [Phe-PEG1-Dasa],0.294 nM,81%,36 h,1.56 nM,"DC50 (BCR–ABL [3]; 48 h, listed as Phe-based PROTAC): 1.56 nM"
Cc1nc(Nc2ncc(C(=O)Nc3c(C)cccc3Cl)s2)cc(N2CCN(CCOC(=O)CCOCCNC(=O)C(N)CCCNC(=N)N)CC2)n1 (stereo not shown) [Arg-PEG1-Dasa],0.359 nM,98.8%,48 h,0.85 nM and 0.849 nM,"BCR–ABL protein level in tumor (BCR–ABL [4]): significantly downregulated; ubiquitination of immunoprecipitated BCR–ABL [5]: displayed the ubiquitination of immunoprecipitated BCR–ABL; cell growth after drug removal (K562 cells [6]): sustained growth inhibition; tumor growth (K562 xenograft; 10 mg/kg): dramatically impeded tumor growth; also recorded: does not exhibit better antitumor effects than Dasa; also recorded: robust antitumor effects; body weight / tolerability ([7]; nude mice, 10 mg/kg i.p. every other day, 10 doses): did not significantly alter the body weight; also recorded: without overt drug toxicity; BCR–ABL protein level after drug withdrawal (BCR–ABL [3]; 1 nM 2 days, washout, compound-free medium): remained markedly diminished; BCR–ABL degradation kinetics (cycloheximide chase) (BCR–ABL [3]; 2.5 nM for 32 h, then cycloheximide): quickly reduced; DC50 (BCR–ABL [3]; 48 h, listed as Arg-based PROTAC): ~0.85 nM; BCR–ABL degradation in combination with Lys-, Leu-, or Phe-PEG1-Dasa (BCR–ABL [3]; Arg-PEG1-Dasa mixed with varying doses of second PROTAC): not further enhanced; pSTAT5 / STAT5 phosphorylation after drug withdrawal (pSTAT5): remained markedly diminished"
"CC(C)C[C@@H](C=O)NC(=O)[C@H](CC(C)C)NC(=O)[C@H](CC(C)C)NC(=O)OCc1ccccc1 [MG132, reference compound] (Cbz-Leu-Leu-Leu-aldehyde)",,,,,"effect on Arg-PEG1-Dasa–mediated degradation of BCR–ABL (BCR–ABL [3]; MG132 10 μM or chloroquine 25 μM with Arg-PEG1-Dasa 1 nM, 48 h): blocked"
Cc1nc(Nc2ncc(C(=O)Nc3c(C)cccc3Cl)s2)cc(N2CCN(CCOC(=O)CCOCCOCCOCCNC(=O)C(N)CCCNC(=N)N)CC2)n1 (stereo not shown) [Arg-PEG3-Dasa],0.48 nM,,,,
Cc1nc(Nc2ncc(C(=O)Nc3c(C)cccc3Cl)s2)cc(N2CCN(CCOC(=O)CCOCCNC(=O)[C@@H](N)CCCCN)CC2)n1 [Lys-PEG1-Dasa],0.457 nM,99.1%,48 h,0.981 nM,"DC50 (BCR–ABL [3]; 48 h, listed as Lys-based PROTAC): 0.98 nM"
Cc1nc(Nc2ncc(C(=O)Nc3c(C)cccc3Cl)s2)cc(N2CCN(CCOC(=O)CCOCCNC(=O)[C@@H](N)CC(C)C)CC2)n1 [Leu-PEG1-Dasa],0.22 nM,91.2%,12 h,0.479 nM,"DC50 (BCR–ABL [3]; 48 h, listed as Leu-based PROTAC): 0.48 nM"
Cc1nc(Nc2ncc(C(=O)Nc3c(C)cccc3Cl)s2)cc(N2CCN(CCOC(=O)CCOCCOCCNC(=O)C(N)CCCNC(=N)N)CC2)n1 (stereo not shown) [Arg-PEG2-Dasa],0.53 nM,,,,
"Cc1nc(Nc2ncc(C(=O)Nc3c(C)cccc3Cl)s2)cc(N2CCN(CCO)CC2)n1 [Dasa, dasatinib, reference compound]",,,,,"cell growth after drug removal (K562 cells [6]): gradually resumed; also recorded: rapid recovery; tumor growth (K562 xenograft): potent tumor growth inhibition; body weight / tolerability ([7]; mouse, in vivo, ip, 10 mg/kg): without significant loss of body weight; pSTAT5 / STAT5 phosphorylation after drug withdrawal (pSTAT5): gradually recovered"
